Patent publication US20140271831A1, “RACECADOTRIL LIQUID COMPOSITIONS” (McNeil-PPC, Inc., priority 2013, published 2014)

Key:
[1] = cited from earlier work
[2] = Stability of Racecadotril in Water; format: physicochemical
Description: For comparative purposes, the stability of racecadotril was tested at room temperature and at 40° C. • 1. Pipet 1 mL of Racecadotril solution into a 100 mL volumetric flask (V.F.) • 2. Dilute to volume with the same buffer used in the solution preparation. • 3. […] Parameters may be modified to optimize chromatography. • The assay of Racecadotril is determined by using the external standard injected. The degradation products levels are determined by % peak area relative to the Racecadotril peak. [table] [table] Mobil Phase A: Phosphate buffer, pH 2.5 (Buffer prep: dissolve 1 g of potassium dihydrogen phosphate in water, adjust to pH 2.5 with phosphoric acid, dilute to 1000 mL with water) Mobil Phase B: 100% Acetonitrile

CC(=O)SCC(Cc1ccccc1)C(=O)NCC(=O)OCc1ccccc1 (racemic) [Racecadotril]
water solubility [1]: low water solubility | Racecadotril (%) in Water at 40° C. ([2]; 1 Week): 0% | Racecadotril (%) in Water at Room Temperature ([2]; 1 Week): 1.0% | Racecadotril (%) in Water at 40° C. ([2]; 2 Weeks): 0.2% | Racecadotril (%) in Water at Room Temperature ([2]; 2 Weeks): 0.0% | Racecadotril (%) in Water at Room Temperature ([2]; 12 Hours): 44.9% | Racecadotril (%) in Water at 40° C. ([2]; Initial): 78.88% | Racecadotril (%) in Water at Room Temperature ([2]; Initial): 74.88% | racecadotril present ([2]; in water, at 1 week): less than 1% | stability of racecadotril in water ([2]; room temperature and 40° C., after 12 hours): unstable
